For two compounds, Km results are on record in article PMC3361975 (Biochemistry, 2012).

Each structure is given as a SMILES string. Where two headings read alike, the source gives them in different places.

In the test the test system is PTDH ortholog from Nostoc sp. 7120. Put plainly: initial rate of NADH formation at […] nm, Michaelis-Menten fit. The test is classed as biochemical, Nostoc sp. PCC 7120. Particulars: read-out: Nostoc sp. 7120, 100 mM MOPS pH 7.25, 30 °C.

Turning to `NC(=O)c1ccc[n+]([C@@H]2O[C@H](COP(=O)(O)OP(=O)(O)OC[C@H]3O[C@@H](n4cnc5c(N)ncnc54)[C@H](O)[C@@H]3O)[C@@H](O)[C@H]2O)c1` [NAD^+], the Km (co-substrate phosphite) is 10.3 µM. Take `O=[PH](O)O` [phosphite]: the Km (co-substrate NAD+) was 20.2 µM.
